For one data set, the target named is KIF18A (Homo sapiens (Human), UniProt Q8NI77). Kind of data set: KIF18A ATPase activity under tubulin stimulation (ADP-Glo assay). The class given is biochemical. The note with it: KIF18A 30 nM, ATP 150 μM, pig microtubules. On the technique in general: ADP-Glo first removes unused ATP, then detects ADP through luciferase.
A further data set in a line: PK study in ICR mice. The class given is in vivo, mouse. As to conditions: plasma, route and dose not given. The essentials: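 Fasted ICR mice (3/group) dosed intravenously or by oral gavage; plasma sampled up to 24 h. Plasma levels measured by LC-MS/MS after protein precipitation. T½, AUC0-t, CL, Vss and F derived by noncompartmental analysis.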
The test system of a further data set is HCT116 cells. Nature of the data set: HCT116 cell anti-proliferation assay. As to conditions: 6 days, Cell Titer-Glo. The format is cell-based. On the procedure:
HCT116 (ATCC, CCL-247) cells were cultured in McCoy's 5a complete medium (Gibco, 12330-031) containing 10% fetal bovine serum (Gibco, 10099-141C), 100 U penicillin and 100 μg/mL streptomycin (Gibco, 15140-122). The Promega kit Cell Titer-Glo (Promega: G7572) was used in this method for test.
HCT116 cells were cultured in T75 cell flasks (Corning, 430641) and the cells were placed in a 37° C., 5% CO2 incubator. Cells were passaged when reaching a cell density of 70%-80%, approximately twice per week. To perform the experiment, the test compounds were dissolved in DMSO to prepare a 10 mM stock solution, and the test compounds were added to the 384-well cell test plate (Corning, 3765) at the predetermined concentration (19.5 nM-[…]) using ECHO. […] cells were digested and 150 cells (60 μL medium) were seeded per well in the test plate. The 384-well plate was then centrifuged at 500 rpm for 1 minute, and then placed in a 37° C., 5% CO2 incubator for 6 days of cultivation. Six days later, the cell culture plate was equilibrated for 10 minutes at room temperature, 25 μL of Cell Titer-Glo was added to each well, and the mixture was shaken and mixed well and let stand for 5 minutes. The luminescence values for samples in various wells were read using a microplate reader in Luminescence mode.
The percentage of inhibition of cell proliferation by the test compound at each concentration was calculated by comparing with the values of the control group (0.2% DMSO). The IC50 values of the compounds were obtained by concentration-inhibition rate nonlinear regression analysis of the test compounds using GraphPad Prism 9.
(Cellular ATP, detected with luciferase, serves as a proxy for viable cell number.)

The mark [1] stands for this setting: both sexes, mouse, read-out: AUC.
[2] abbreviates: both sexes, mouse, read-out: Cmax.

The structures appear in SMILES notation. Read-outs that look alike come from different tables or passages of the source. Where only a bound is given, the exact number is not on record here.

KIF18A, sequence (Q8NI77 whole entry): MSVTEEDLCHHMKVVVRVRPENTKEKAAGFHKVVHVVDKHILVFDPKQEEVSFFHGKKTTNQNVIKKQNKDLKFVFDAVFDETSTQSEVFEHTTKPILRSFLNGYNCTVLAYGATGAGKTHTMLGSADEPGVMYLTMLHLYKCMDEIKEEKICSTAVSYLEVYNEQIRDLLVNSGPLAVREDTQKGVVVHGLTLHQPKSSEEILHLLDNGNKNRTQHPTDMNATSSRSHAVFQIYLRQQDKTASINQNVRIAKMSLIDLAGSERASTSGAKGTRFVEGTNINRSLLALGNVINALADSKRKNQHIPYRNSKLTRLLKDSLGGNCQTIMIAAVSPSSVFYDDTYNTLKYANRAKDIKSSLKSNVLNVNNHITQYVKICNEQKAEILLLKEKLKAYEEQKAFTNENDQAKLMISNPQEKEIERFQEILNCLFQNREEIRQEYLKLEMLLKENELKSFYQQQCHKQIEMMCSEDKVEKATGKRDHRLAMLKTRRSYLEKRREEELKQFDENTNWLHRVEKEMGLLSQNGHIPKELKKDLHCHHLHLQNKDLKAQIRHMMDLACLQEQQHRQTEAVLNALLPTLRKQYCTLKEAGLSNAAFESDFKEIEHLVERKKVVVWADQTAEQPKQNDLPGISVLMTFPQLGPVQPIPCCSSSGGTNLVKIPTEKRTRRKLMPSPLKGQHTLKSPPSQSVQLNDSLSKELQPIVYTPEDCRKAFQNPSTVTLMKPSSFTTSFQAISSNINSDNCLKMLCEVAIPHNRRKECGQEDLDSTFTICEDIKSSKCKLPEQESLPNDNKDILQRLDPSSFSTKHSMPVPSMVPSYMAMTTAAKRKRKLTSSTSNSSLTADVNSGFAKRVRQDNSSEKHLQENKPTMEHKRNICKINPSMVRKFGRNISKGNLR
KIF18A, sequence (P02550 whole entry partner): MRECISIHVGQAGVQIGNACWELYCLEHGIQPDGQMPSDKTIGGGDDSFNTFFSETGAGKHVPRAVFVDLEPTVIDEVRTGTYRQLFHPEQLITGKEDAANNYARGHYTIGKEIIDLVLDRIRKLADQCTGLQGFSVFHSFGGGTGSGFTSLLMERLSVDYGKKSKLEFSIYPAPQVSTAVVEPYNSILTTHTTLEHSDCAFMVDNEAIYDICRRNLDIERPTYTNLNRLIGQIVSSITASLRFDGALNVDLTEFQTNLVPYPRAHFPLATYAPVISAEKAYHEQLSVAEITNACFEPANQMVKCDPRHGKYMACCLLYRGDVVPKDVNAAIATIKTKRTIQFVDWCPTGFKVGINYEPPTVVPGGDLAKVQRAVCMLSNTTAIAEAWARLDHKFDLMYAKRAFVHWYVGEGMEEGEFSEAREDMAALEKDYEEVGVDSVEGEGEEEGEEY
KIF18A, sequence (P02554 whole entry partner): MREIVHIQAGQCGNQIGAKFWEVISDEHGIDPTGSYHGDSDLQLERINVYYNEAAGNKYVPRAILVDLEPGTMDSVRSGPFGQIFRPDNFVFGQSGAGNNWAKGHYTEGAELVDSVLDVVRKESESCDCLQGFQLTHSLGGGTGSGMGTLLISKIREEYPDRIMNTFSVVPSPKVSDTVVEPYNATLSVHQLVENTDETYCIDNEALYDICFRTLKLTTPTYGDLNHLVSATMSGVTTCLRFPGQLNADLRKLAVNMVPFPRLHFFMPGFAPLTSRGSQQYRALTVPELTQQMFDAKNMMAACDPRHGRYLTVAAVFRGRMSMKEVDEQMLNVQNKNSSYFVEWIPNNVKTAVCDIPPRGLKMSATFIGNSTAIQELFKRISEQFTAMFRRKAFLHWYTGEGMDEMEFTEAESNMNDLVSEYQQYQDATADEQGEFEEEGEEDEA

As to `CC1(C)Cn2c(cc3c(NC(=O)c4ccc(NS(=O)(=O)CCO)cc4N4CCC5(CC4)CC5)cccc32)CO1` [Example 371, N-(3,3-dimethyl-3,4-dihydro-1H-[1,4]oxazino[4,3-a]indol-9-yl)-4-(2-hydroxyethylsulfonamido)-2-(6-azaspiro[2.5]octan-6-yl)benzamide], the IC50 was at most 50 nM against KIF18A and above 10000 nM with HCT116 cells (Homo sapiens, HCT-116, 144 h). Further, the AUC in “PK study in ICR mice” (setting [1]) was 51200 ng·h/mL. The Cmax in “PK study in ICR mice” (setting [2]) is 3750 ng/mL.

For `CC1(O)CCCn2c1cc1c(NC(=O)c3ccc(NS(=O)(=O)CCO)cc3N3CCC4(CC3)CC4)cccc12` (stereo not shown) [Example 372], the results for the IC50 at KIF18A and with HCT116 cells were at most 50 nM and above 10000 nM, respectively.

Regarding `COc1ccc(NC(=O)c2ccc(NS(=O)(=O)CCO)cc2N2CCC3(CC2)CC3)c2cc3n(c12)CC(C)(C)OC3` [Example 455, 4-((2-hydroxyethyl)sulfonamido)-N-(6-methoxy-3,3-dimethyl-3,4-dihydro-1H-[1,4]oxazinyl[4,3-a]indol-9-yl)-2-(6-azaspiro[2.5]oct-6-yl)benzamide], the IC50 on KIF18A was 50 to 500 nM; in the data set on HCT116 cells (Homo sapiens, HCT-116, 144 h) it was above 10000 nM. Moreover, the AUC in the data set “PK study in ICR mice” (setting [1]) amounted to 71000 ng·h/mL. The Cmax in “PK study in ICR mice” (setting [2]) came to 5590 ng/mL.

Consider `N#Cc1ccc(NC(=O)c2ccc(NS(=O)(=O)CCO)cc2N2CCC(=C(F)F)CC2)c2cc3n(c12)CCC(F)(F)C3` [Example 378], for which the IC50 against KIF18A is 50 to 500 nM. In “PK study in ICR mice”, this compound yielded an AUC of 48150 ng·h/mL and a Cmax of 5253 ng/mL. The compound also registered an IC50 in the data set on HCT116 cells above 10000 nM.

In the case of `CC1(C)Cn2c(cc3c(NC(=O)c4ccc(NS(=O)(=O)CCO)cc4N4CCC5(CC4)CC5)ccc(OC(F)F)c32)CO1` [Example 523], the IC50 against KIF18A lay within 50 to 500 nM. In “PK study in ICR mice”, this compound showed an AUC of 99384 ng·h/mL and a Cmax of 7088 ng/mL.

`CNc1cc(NS(=O)(=O)CCO)cc(N2CCC3(CC2)CC3)c1C(=O)Nc1cc(C)nc(N2CCC(F)(F)CC2)n1` [Example 4, N-(2-(4,4-difluoropiperidin-1-yl)-6-methylpyrimidin-4-yl)-4-(2-hydroxyethylsulfonamide)-2-methylamino-6-(6-azaspiro[2.5]octan-6-yl)benzamide]: the IC50 on KIF18A was 50 to 500 nM; in the data set with HCT116 cells, 2600 nM.

For `CC1(C)Cn2c(cc3c(NC(=O)c4ccc(NS(=O)(=O)CCO)cc4N4CCC5(CC4)CC5)ccc(C#N)c32)CO1` [Compound 392, N-(6-cyano-3,3-dimethyl-3,4-dihydro-1H-[1,4]oxazino[4,3-a]indol-9-yl)-4-((2-hydroxyethyl)sulfonamido)-2-(6-azaspiro[2.5]oct-6-yl)benzamide], the IC50 is at most 50 nM at KIF18A and above 10000 nM with HCT116 cells (Homo sapiens, HCT-116, 144 h). The AUC in “PK study in ICR mice” (setting [1]) worked out at 50800 ng·h/mL. In addition, the Cmax in the data set “PK study in ICR mice” (setting [2]) is 5080 ng/mL.

As for `O=C(Nc1cccc2c1cc1n2CCOC1)c1ccc(NS(=O)(=O)CCO)cc1N1CCC(=C(F)F)CC1` [Example 319, 2-(4-difluoromethylene)piperidin-1-yl-N-(3,4-dihydro-1H-[1,4]oxazino[4,3-a]indol-9-yl)-4-((2-hydroxyethyl)sulfonamide) benzamide], the IC50 against KIF18A was at most 50 nM. In “PK study in ICR mice”, this compound yielded an AUC of 16534 ng·h/mL and a Cmax of 3717 ng/mL. Further, in the data set on HCT116 cells, the IC50 was above 10000 nM.

Regarding `N#Cc1ccc(NC(=O)c2ccc(NS(=O)(=O)CCO)cc2N2CCC(=C(F)F)CC2)c2cc3n(c12)CCOC3` [Example 364, N-(6-cyano-3,4-dihydro-1H-[1,4]oxazino[4,3-a]indol-9-yl)-2-(4-(difluoromethylene)piperidin-1-yl)-4-((2-hydroxyethyl)sulfonamido)benzamide], the IC50 against KIF18A was at most 50 nM; in the data set with HCT116 cells (Homo sapiens, HCT-116, 144 h) it was 8200 nM.

As for `COC1c2cc3c(NC(=O)c4ccc(NS(=O)(=O)CCO)cc4N4CCC5(CC4)CC5)cccc3n2CCC1(F)F` (single isomer, unassigned) [Example 340-P2], the IC50 against KIF18A was at most 50 nM; in the data set with HCT116 cells, 8500 nM.

For the compound `CC1(C)Cn2c(cc3c(NC(=O)c4ccc(NS(=O)(=O)CCO)cc4N4CCC(=C(F)F)CC4)cccc32)CO1` [Example 370, 2-(4-(difluoromethylene)piperidin-1-yl)-N-(3,3-dimethyl-3,4-dihydro-1H-[1,4]oxazino[4,3-a]indol-9-yl)-4-((2-hydroxyethyl)sulfonamido)benzamide], the IC50 is 50 to 500 nM against KIF18A and above 10000 nM in the data set on HCT116 cells (Homo sapiens, HCT-116, 144 h). Also, in “PK study in ICR mice” (setting [1]), the AUC worked out at 52400 ng·h/mL. Also, the Cmax in the data set “PK study in ICR mice” (setting [2]) turned out to be 3580 ng/mL.

`O=C(Nc1ccc(F)c2c1nc1n2CCOC1)c1ccc(NS(=O)(=O)CCO)cc1N1CCC2(CC1)CC2` [Example 308, N-(6-fluoro-3,4-dihydro-1H-benzo[4,5]imidazo[2,1-c][1,4]oxazin-9-yl)-4-((2-hydroxyethyl)sulfonamido)-2-(6-azaspiro[2.5]octan-6-yl)benzamide]: the IC50 was at most 50 nM against KIF18A and above 10000 nM with HCT116 cells (Homo sapiens, HCT-116, 144 h). Further, the AUC in the data set “PK study in ICR mice” (setting [1]) was 5650 ng·h/mL. Moreover, in “PK study in ICR mice” (setting [2]), the Cmax came to 1100 ng/mL.

As to `N#Cc1ccc(NC(=O)c2ccc(NS(=O)(=O)CCO)cc2N2CCC3(CC2)CC3)c2cc3n(c12)CCOC3` [Example 310, N-(6-cyano-3,4-dihydro-1H-[1,4]oxazino[4,3-a]indol-9-yl)-4-((2-hydroxyethyl)sulfonamido)-2-(6-azaspiro[2.5]oct-6-yl)benzamide], the IC50 at KIF18A is at most 50 nM; in the data set on HCT116 cells (Homo sapiens, HCT-116, 144 h) it was 9000 nM. Further, the AUC in the data set “PK study in ICR mice” (setting [1]) was 12600 ng·h/mL. Further, in “PK study in ICR mice” (setting [2]), the Cmax amounted to 3030 ng/mL.

Regarding `COc1ccc(NC(=O)c2ccc(NS(=O)(=O)CCO)cc2N2CCC(=C(F)F)CC2)c2cc3n(c12)CCOC3` [Compound 405, 2-(4-(difluoromethylene)piperidin-1-yl)-4-((2-hydroxyethyl)sulfonamido)-N-(6-methoxy-3,4-dihydro-1H-[1,4]oxazinyl[4,3-a]indol-9-yl)benzamide], the IC50 against KIF18A is at most 50 nM; in the data set on HCT116 cells it was above 10000 nM. This compound had an AUC in the data set “PK study in ICR mice” of 27572 ng·h/mL. For the same compound, the Cmax in the data set “PK study in ICR mice” amounted to 4205 ng/mL.

Regarding `CC1(C)OCCn2c1cc1c(NC(=O)c3ccc(NS(=O)(=O)CCO)cc3N3CCC(=C(F)F)CC3)cccc12` [Compound 395, 2-(4-(difluoromethylene)piperidin-1-yl)-N-(1,1-dimethyl-3,4-dihydro-1H-[1,4]oxazino[4,3-a]indol-9-yl)-4-((2-hydroxyethyl)sulfonamido)benzamide], the IC50 against KIF18A is at most 50 nM; in the data set with HCT116 cells (Homo sapiens, HCT-116, 144 h), above 10000 nM.

With `O=C(Nc1cccc2c1cc1n2CCC(F)(F)C1)c1ccc(NS(=O)(=O)CCO)cc1N1CCC(=C(F)F)CC1` [Example 374, N-(8,8-difluoro-6,7,8,9-tetrahydropyridino[1,2-a]indol-1-yl)-2-(4-(difluoromethylene)piperidin-1-yl)-4-((2-hydroxyethyl)sulfonamido)benzamide], the IC50 was at most 50 nM at KIF18A and 8700 nM in the data set with HCT116 cells (Homo sapiens, HCT-116, 144 h). Moreover, the exposure (AUC) in the data set “PK study in ICR mice” (setting [1]) was determined as 26500 ng·h/mL. The Cmax in “PK study in ICR mice” (setting [2]) came out at 3700 ng/mL.

`COc1ccc(NC(=O)c2ccc(NS(=O)(=O)CCO)cc2N2CCC(=C(F)F)CC2)c2cc3n(c12)CC(C)(C)OC3` [Example 465, 2-(4-(difluoromethylene)piperidin-1-yl)-4-((2-hydroxyethyl)sulfonamido)-N-(6-methoxy-3,3-dimethyl-3,4-dihydro-1H-[1,4]oxazinyl[4,3-a]indol-9-yl)benzamide] gave a half-maximal inhibitory concentration (IC50) at KIF18A of 50 to 500 nM. In addition, in the data set “PK study in ICR mice”, the AUC was determined as 72111 ng·h/mL and the Cmax came out at 5780 ng/mL. Moreover, in the data set on HCT116 cells, the IC50 is above 10000 nM.

The compound `Nc1cc(NS(=O)(=O)CCO)cc(N2CCC3(CC2)CC3)c1C(=O)Nc1cccc(N2CCC(F)(F)CC2)c1` [Example 1, 2-amino-N-(3-(4,4-difluoropiperidin-1-yl)phenyl)-4-((2-hydroxyethyl)sulfonamide)-6-(6-azaspiro[2.5]octan-6-yl)benzamide] came in with an IC50 at KIF18A of at most 50 nM.

`O=C(Nc1cccc2c1cc1n2CC2CCC1O2)c1ccc(NS(=O)(=O)CCO)cc1N1CCC(=C(F)F)CC1` (stereo not shown) [Compound 398, 2-(4-(difluoromethylene)piperidin-1-yl)-4-((2-hydroxyethyl)sulfonamido)-N-(7,8,9,10-tetrahydro-6H-7,10-epoxyazeto[1,2-a]indol-1-yl)benzamide] returned an IC50 on KIF18A of 50 to 500 nM. In “PK study in ICR mice”, this compound came in with an AUC of 6992 ng·h/mL and a Cmax of 1410 ng/mL. The compound also displayed an IC50 with HCT116 cells above 10000 nM.

In the case of `CC1Cn2c(cc3c(NC(=O)c4ccc(NS(=O)(=O)CCO)cc4N4CCC5(CC4)CC5)cccc32)C(C)O1` (single isomer, unassigned) [Compound 312-P2A, N-(1,3-dimethyl-3,4-dihydro-1H-[1,4]oxazino[4,3-a]indol-9-yl)-4-((2-hydroxyethyl)sulfonamido)-2-(6-azaspiro[2.5]oct-6-yl)benzamide], the results for the IC50 against KIF18A and with HCT116 cells were at most 50 nM and 6700 nM, respectively.

Usually IC50 stands for the point on the concentration scale where inhibition reaches its midpoint. Read a low IC50 as greater potency. A word on the AUC: it is the area under the concentration-time curve, a measure of exposure. One may read the Cmax as the maximum level reached in the sampled fluid or tissue.

Values taken from patent publication US20260070887A1 (Shenzhen Zhongge Biological Technology Co., Ltd., priority 2022, published 2026).
